From patent US20100075918A1, “HYALURONIDASE INHIBITORS AS ANTI-CANCER AGENTS” (priority 2006, published 2010)

How the values were obtained:
HYAL1-type HAase = molecular target: T1, HYAL1-type HAase (Homo sapiens, UniProt Q12794); experiment: HAase ELISA-like assay, inhibition of HYAL1 activity; assay type: biochemical
T1 construct: HYAL1 cDNA encoding the full-length protein inserted into an expression vector; made in house
T1 sequence (Q12794 22-435): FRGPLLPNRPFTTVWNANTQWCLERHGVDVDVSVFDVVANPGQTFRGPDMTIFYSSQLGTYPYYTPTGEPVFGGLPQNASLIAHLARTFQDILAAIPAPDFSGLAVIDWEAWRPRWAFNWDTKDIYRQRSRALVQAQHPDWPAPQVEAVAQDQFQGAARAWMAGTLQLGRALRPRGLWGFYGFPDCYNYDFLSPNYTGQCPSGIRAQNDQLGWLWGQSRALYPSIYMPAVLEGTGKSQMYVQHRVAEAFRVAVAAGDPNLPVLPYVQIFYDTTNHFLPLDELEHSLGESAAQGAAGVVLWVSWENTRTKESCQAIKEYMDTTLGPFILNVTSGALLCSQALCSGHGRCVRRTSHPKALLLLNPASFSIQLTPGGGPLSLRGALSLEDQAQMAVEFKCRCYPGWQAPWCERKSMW
Method: Briefly, a stable HYAL1-expressing clone having about 40 mU/mL activity was expanded in T75 cm^2 flasks.
A microtiter well plate coated with human umbilical cord HA (MP Biomedicals; Irvine, Calif.) was incubated with about 40 mU/mL of HYAL1-type HAase in the presence or absence of various HAase inhibitors in assay buffer. For the HYAL1-type activity assay, 0.1 M sodium formate, 0.15 M NaCl, and 0.02% bovine serum albumin buffer (pH 4.2) was used as the assay buffer.
The effect of HAase inhibitors on the activity of HYAL1-type HAase was tested at 0, 1, 2, 4, 6, 8, 10, 20, 40, 60, 80 and 100 μg/mL concentrations of each inhibitor. […] Each plate was developed for 3 min and the reaction was terminated by adding 3 N HCl. HAase activity (mU/mL) was calculated from a standard graph prepared by plotting known amounts of Streptomyces HAase (10^−4 U/mL) versus (Control (no enzyme) OD405 nm-Sample OD405 nm). […] The data presented are mean ±SEM from duplicate measurements in two independent experiments.

[1] = system: HYAL1, testicular, honeybee, and Streptomyces hyaluronidases (HAases); details: Isoyama et al. (2006); 21 potential inhibitors; cited from earlier work
HYAL1 = molecular target: T2, HYAL1 (Homo sapiens, UniProt Q12794); details: Isoyama et al. (2006); cited from earlier work
T2 sequence (Q12794 22-435): T1 sequence (Q12794 22-435)

[2] = about 40 mU/mL HYAL1-type HAase, pH 4.2, 37° C. for 16 hours, N.D. = no inhibition detected

| Compound | IC50 (μg/mL), inhibition of HYAL1 activity (HYAL1-type HAase; [2]) | further results |
| --- | --- | --- |
| CCCCCCCCCCCCCCS(=O)(=O)O [1-Tetradecane sulfonic acid, 1-tetradecane sulfonic acid] |  | IC50 (HYAL1-type HAase; about 40 mU/mL HYAL1-type HAase, pH 4.2, 37° C. for 16 hours, N.D. = no inhibition detected, read-out: IC50 (μg/mL), inhibition of HYAL1 activity (converted)): 67.9 µM; Effectiveness as HAase inhibitor [1]: not effective HAase inhibitors |
| CC1(C)[C@@H](O[C@H]2O[C@H](C(=O)O)[C@@H](O)[C@H](O)[C@H]2O[C@@H]2O[C@H](C(=O)O)[C@@H](O)[C@H](O)[C@H]2O)CC[C@]2(C)[C@H]3C(=O)C=C4[C@@H]5C[C@@](C)(C(=O)O)CC[C@]5(C)CC[C@@]4(C)[C@]3(C)CC[C@@H]12 [Glycerrhizic acid, glycerrhizic acid] | 32.4 µg/mL | Effectiveness as HAase inhibitor [1]: not effective HAase inhibitors |
| O=C([O-])CC([S-])C(=O)[O-].[Au+].[Na+].[Na+] (stereo not drawn) [sodium aurothiomalate] |  | Effectiveness as HAase inhibitor [1]: not effective HAase inhibitors |
| Heparin | 15.1 µg/mL | HYAL1 inhibition (HYAL1): potent inhibitor |
| poly(styrene-4-sulfonate) [PSS 17,000] | 15.2 µg/mL |  |
| poly(styrene-4-sulfonate) [PSS 32,000] | 13.5 µg/mL |  |
| poly(styrene-4-sulfonate) [PSS 49,000] | 15.2 µg/mL |  |
| poly(styrene-4-sulfonate) [PSS 77,000] | 14.8 µg/mL |  |
| poly(styrene-4-sulfonate) [PSS 150,000] | 10.5 µg/mL |  |
| poly(styrene-4-sulfonate) [PSS 210] |  | IC50 for HYAL1 (HYAL1): no inhibition |
| poly(styrene-4-sulfonate) [PSS 350,000] | 13.15 µg/mL |  |
| poly(styrene-4-sulfonate) [PSS 990,000] | 9.6 µg/mL | IC50 (HYAL1): 0.0096 µM |
| poly(styrene-4-sulfonate) [PSS 1400] | 26.8 µg/mL | IC50 to inhibit HYAL1 activity, fold higher than that for PSS 999,000 and PSS 17,000 (HYAL1-type HAase): 2.5 fold |
| poly(styrene-4-sulfonate) [PSS 4300] | 8.48 µg/mL |  |
| poly(styrene-4-sulfonate) [PSS 6800] | 22.71 µg/mL | IC50 to inhibit HYAL1 activity, fold higher than that for PSS 999,000 and PSS 17,000 (HYAL1-type HAase): 2.5 fold |
